Source: patent EP4745135A1 (Gluetacs Therapeutics (Shanghai) Co., Ltd., priority 2023, dated 2025)

How the values were obtained:
[1] = tested on: Human acute T lymphocytic leukemia cell (Molt4); test: Tumor cell proliferation inhibition (CellTiter-Meiluncell luminescent cell viability assay); conditions: MOLT-4, 96 h; for inhibition at 0.01 µM: read-out: Inhibition Rate at 10 nM (%); for inhibition at 0.5 µM: read-out: Inhibition Rate at 500 nM (%)
[2] = biological target: T1, human Cereblon WT GST-tagged protein (Homo sapiens, UniProt Q96SW2); test: CRBN-binding affinity, HTRF (CEREBLON BINDING kit); conditions: for inhibition at 0.5 µM: read-out: Inhibition Rate at 0.5 µM (%); for inhibition at 2 µM: read-out: Inhibition Rate at 2 µM (%)
T1 construct: purchased CISBIO 64BDCRBNPEH

[3] = biological target: T2, IKZF2 (Homo sapiens, UniProt Q96SW2+Q9UKS7); test: Western blot, degradation of substrate protein in hPBMCs; assay type: cell-based
T2 construct: effects of the compounds of the present disclosure on the expression of target proteins in cells; endogenous in cells; host or cells: human PBMCs (Milecell Biotechnologies)

[4] = biological target: T3, IKZF3 (Homo sapiens, UniProt Q96SW2+Q9UKT9); test: as above; assay type: cell-based
T3 construct: effects of the compounds of the present disclosure on the expression of target proteins in cells; endogenous in cells; host or cells: human PBMCs (Milecell Biotechnologies)

[5] = biological target: T4, IKZF1 (Homo sapiens, UniProt Q13422+Q96SW2); test: as above; assay type: cell-based
T4 construct: effects of the compounds of the present disclosure on the expression of target proteins in cells; endogenous in cells; host or cells: human PBMCs (Milecell Biotechnologies)

[6] = biological target: T5, CK1α (Homo sapiens, UniProt P48729+Q96SW2); test: as above; assay type: cell-based
T5 construct: effects of the compounds of the present disclosure on the expression of target proteins in cells; endogenous in cells; host or cells: human PBMCs (Milecell Biotechnologies)

[7] = biological target: T6, WEE1 (Homo sapiens, UniProt P30291+Q96SW2); test: as above; assay type: cell-based
T6 construct: effects of the compounds of the present disclosure on the expression of target proteins in cells; endogenous in cells; host or cells: human PBMCs (Milecell Biotechnologies)

[8] = tested on: GSPT1; test: as above; assay type: cell-based, Human
[9] = tested on: Human myeloid monocytic leukemia cell (MV-4-11); test: Tumor cell proliferation inhibition (CellTiter-Meiluncell luminescent cell viability assay); conditions: MV4-11, 96 h; for inhibition at 0.01 µM: read-out: Inhibition Rate at 10 nM (%); for inhibition at 0.5 µM: read-out: Inhibition Rate at 500 nM (%)
[10] = tested on: Human multiple myeloma cell (MM.1S); test: as above; conditions: Homo sapiens, MM1.S, 96 h
[11] = Western blot, 24 hours of compound treatment, compounds tested at 50 nM and 500 nM (concentration for the table not stated)
[12] = 24 hours treatment, compounds at 50 nM and 500 nM (concentration behind the class not stated)

T4 sequence (Q13422 whole entry): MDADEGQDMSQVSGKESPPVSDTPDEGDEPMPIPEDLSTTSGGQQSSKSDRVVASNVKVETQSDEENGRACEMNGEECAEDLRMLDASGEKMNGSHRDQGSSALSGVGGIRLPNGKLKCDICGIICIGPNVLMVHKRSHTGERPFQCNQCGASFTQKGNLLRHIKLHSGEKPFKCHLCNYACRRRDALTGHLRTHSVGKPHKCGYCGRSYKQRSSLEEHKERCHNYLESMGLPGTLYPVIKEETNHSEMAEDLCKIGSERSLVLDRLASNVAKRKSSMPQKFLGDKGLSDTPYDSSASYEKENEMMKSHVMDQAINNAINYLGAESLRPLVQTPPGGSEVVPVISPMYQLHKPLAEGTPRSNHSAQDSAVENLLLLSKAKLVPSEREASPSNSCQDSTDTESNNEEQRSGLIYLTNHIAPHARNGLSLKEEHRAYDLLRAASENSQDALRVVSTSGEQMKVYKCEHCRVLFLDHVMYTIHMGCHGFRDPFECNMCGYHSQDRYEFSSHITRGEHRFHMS
T4 sequence (Q96SW2 whole entry): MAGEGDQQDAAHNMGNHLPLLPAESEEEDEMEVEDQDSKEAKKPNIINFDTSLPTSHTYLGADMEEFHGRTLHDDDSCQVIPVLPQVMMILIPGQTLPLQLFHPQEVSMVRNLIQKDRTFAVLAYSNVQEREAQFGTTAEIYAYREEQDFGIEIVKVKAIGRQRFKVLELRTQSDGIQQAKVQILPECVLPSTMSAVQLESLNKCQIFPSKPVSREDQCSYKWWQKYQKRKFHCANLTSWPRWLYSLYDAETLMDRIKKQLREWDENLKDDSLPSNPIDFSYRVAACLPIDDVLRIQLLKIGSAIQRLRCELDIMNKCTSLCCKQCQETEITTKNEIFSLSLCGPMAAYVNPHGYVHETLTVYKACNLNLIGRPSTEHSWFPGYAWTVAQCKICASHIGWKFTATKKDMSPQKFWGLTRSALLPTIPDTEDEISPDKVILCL
T4 sequence (Q16531 whole entry partner): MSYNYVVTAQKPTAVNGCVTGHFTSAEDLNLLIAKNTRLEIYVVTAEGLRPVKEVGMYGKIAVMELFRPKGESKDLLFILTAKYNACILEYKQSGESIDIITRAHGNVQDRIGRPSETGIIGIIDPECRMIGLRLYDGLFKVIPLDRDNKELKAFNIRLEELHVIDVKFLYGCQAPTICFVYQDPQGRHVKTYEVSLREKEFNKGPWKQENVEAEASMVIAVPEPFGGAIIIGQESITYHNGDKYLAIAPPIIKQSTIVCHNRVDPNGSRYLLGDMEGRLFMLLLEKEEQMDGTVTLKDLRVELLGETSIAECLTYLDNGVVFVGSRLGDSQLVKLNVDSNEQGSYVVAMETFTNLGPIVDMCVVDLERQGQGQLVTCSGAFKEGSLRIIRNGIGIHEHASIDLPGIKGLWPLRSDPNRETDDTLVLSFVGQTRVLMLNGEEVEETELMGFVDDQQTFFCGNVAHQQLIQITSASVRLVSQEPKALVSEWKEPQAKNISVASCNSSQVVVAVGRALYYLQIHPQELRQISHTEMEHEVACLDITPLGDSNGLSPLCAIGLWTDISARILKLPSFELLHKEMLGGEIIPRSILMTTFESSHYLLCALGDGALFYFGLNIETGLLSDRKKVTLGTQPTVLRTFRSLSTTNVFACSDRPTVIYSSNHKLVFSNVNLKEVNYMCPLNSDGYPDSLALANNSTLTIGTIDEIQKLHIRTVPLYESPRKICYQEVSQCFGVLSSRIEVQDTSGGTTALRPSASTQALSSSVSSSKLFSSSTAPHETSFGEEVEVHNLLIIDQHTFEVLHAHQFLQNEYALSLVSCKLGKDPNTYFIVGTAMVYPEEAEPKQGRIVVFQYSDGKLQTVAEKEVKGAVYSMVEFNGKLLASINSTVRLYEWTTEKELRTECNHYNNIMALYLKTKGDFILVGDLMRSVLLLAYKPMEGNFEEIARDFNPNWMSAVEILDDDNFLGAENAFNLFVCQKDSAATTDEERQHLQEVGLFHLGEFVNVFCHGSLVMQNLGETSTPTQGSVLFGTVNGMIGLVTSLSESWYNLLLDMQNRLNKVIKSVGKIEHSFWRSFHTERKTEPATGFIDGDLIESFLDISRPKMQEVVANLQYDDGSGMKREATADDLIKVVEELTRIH
T1 sequence (Q96SW2 whole entry): as the sequence (Q96SW2 whole entry) above
T6 sequence (P30291 whole entry): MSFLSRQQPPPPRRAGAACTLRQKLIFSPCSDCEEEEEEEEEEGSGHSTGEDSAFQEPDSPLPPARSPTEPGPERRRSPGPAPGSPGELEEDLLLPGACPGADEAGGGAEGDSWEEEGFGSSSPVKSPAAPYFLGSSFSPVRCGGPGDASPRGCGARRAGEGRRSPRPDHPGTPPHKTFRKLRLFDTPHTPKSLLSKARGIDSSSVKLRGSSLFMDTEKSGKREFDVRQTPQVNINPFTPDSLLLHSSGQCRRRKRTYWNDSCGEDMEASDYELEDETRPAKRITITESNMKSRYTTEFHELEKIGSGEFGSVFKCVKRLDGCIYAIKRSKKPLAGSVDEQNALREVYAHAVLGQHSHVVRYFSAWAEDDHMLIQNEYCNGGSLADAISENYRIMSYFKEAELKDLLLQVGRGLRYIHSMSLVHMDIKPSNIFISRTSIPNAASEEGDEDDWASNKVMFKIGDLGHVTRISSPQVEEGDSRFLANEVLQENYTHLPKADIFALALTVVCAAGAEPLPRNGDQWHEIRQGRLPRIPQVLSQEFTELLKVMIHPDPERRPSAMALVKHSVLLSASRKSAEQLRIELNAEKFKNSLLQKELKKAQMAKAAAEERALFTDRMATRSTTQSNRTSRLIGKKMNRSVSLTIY
T6 sequence (Q96SW2 whole entry): as the sequence (Q96SW2 whole entry) above
T6 sequence (Q16531 whole entry partner): as the sequence (Q16531 whole entry partner) above
T2 sequence (Q9UKS7 whole entry): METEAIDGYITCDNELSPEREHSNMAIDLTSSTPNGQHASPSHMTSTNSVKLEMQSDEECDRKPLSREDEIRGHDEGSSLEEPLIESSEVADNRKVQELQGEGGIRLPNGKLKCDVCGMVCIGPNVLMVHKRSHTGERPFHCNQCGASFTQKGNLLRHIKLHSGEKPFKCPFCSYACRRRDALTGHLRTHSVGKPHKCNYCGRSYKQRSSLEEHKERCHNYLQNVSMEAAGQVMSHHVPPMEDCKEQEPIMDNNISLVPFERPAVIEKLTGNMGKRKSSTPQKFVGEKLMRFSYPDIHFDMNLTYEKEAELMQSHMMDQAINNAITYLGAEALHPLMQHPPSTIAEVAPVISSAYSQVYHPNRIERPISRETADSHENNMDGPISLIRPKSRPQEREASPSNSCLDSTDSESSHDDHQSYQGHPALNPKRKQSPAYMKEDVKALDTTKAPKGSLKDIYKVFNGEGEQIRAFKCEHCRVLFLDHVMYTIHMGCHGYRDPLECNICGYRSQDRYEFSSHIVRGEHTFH
T2 sequence (Q96SW2 whole entry): as the sequence (Q96SW2 whole entry) above
T2 sequence (Q16531 whole entry partner): as the sequence (Q16531 whole entry partner) above
T3 sequence (Q9UKT9 whole entry): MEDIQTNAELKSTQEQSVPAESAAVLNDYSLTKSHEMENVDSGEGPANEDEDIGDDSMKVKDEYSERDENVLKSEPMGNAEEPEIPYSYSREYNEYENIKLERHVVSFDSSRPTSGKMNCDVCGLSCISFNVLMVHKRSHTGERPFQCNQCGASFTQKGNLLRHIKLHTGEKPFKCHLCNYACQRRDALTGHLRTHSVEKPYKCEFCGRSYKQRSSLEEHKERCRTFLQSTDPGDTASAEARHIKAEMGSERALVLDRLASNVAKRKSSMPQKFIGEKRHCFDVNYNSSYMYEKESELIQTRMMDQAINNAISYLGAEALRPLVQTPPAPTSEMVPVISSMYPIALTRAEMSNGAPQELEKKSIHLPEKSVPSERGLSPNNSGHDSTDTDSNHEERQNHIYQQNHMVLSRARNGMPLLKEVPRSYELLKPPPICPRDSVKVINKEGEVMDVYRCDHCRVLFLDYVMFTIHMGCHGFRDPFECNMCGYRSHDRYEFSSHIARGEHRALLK
T3 sequence (Q96SW2 whole entry): as the sequence (Q96SW2 whole entry) above
T3 sequence (Q16531 whole entry partner): as the sequence (Q16531 whole entry partner) above
T5 sequence (P48729 whole entry): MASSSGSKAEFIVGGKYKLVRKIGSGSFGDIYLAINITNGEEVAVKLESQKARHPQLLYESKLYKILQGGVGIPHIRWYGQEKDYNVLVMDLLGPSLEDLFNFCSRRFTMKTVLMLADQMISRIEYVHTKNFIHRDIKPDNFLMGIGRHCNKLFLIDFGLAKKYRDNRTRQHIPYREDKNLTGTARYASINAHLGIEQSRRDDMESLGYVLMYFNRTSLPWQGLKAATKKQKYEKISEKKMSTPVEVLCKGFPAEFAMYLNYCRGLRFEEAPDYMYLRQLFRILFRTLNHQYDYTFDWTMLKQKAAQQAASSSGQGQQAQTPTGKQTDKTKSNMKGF
T5 sequence (Q96SW2 whole entry): as the sequence (Q96SW2 whole entry) above
T5 sequence (Q16531 whole entry partner): as the sequence (Q16531 whole entry partner) above

| SMILES | inhibition at 0.5 µM [2] | inhibition at 2 µM [2] | inhibition at 0.01 µM [1] | inhibition at 0.5 µM [1] | IKZF2 substrate protein remaining % [3, 11] | IKZF3 substrate protein remaining % [4, 11] | IKZF 1 substrate protein remaining % [5, 11] | CK1α substrate protein remaining % [6, 11] | Wee1 substrate protein remaining % [7, 11] | GSPT1 substrate protein remaining % [8, 11] | IKZF2 substrate protein remaining % [3, 12] | IKZF3 substrate protein remaining % [4, 12] | IKZF 1 substrate protein remaining % [5, 12] | CK1α substrate protein remaining % [6, 12] | Wee1 substrate protein remaining % [7, 12] | GSPT1 substrate protein remaining % [8, 12] | inhibition at 0.01 µM [9] | inhibition at 0.5 µM [9] | inhibition at 0.01 µM ([10]; read-out: Inhibition Rate at 10 nM (%)) | inhibition at 0.5 µM ([10]; read-out: Inhibition Rate at 500 nM (%)) |
| --- | --- | --- | --- | --- | --- | --- | --- | --- | --- | --- | --- | --- | --- | --- | --- | --- | --- | --- | --- | --- |
| O=C1CCC(N2Cc3cc(CN4CCN(c5ccnc(Cl)c5Br)CC4)ccc3C2=S)C(=O)N1 (stereo not drawn) [GT-09240, 3-(5-((4-(3-bromo-2-chloropyridin-4-yl)piperazin-1-yl)methyl)-1-thioxoisoindolin-2-yl)piperidine-2,6-dione] | 80 to 100% | 80 to 100% | 50 to 60% | 30 to 40% | – | – | – | – | – | – | B (80%< substrate protein remaining %≤ 100%) | B (80%< substrate protein remaining %≤ 100%) | A (0% ≤ substrate protein remaining % ≤ 80%) | B (80%< substrate protein remaining %≤ 100%) | B (80%< substrate protein remaining %≤ 100%) | A (0% ≤ substrate protein remaining % ≤ 80%) | – | – | – | – |
| Cc1cc(N2CCN(Cc3ccc4c(c3)CN(C3CCC(=O)NC3=O)C4=S)CC2)cs1 (stereo not drawn) [GT-08170, 3-(5-((4-(5-methylthiophen-3-yl)piperazin-1-yl)methyl)-1-thioxoisoindolin-2-yl)piperidine-2,6-dione] | 60 to 80% | 80 to 100% | 5 to 10% | 60 to 70% | – | – | – | – | – | – | A (0% ≤ substrate protein remaining % ≤ 80%) | A (0% ≤ substrate protein remaining % ≤ 80%) | B (80%< substrate protein remaining %≤ 100%) | A (0% ≤ substrate protein remaining % ≤ 80%) | B (80%< substrate protein remaining %≤ 100%) | A (0% ≤ substrate protein remaining % ≤ 80%) | 25 to 30% | 60 to 80% | – | – |

More lines, main results first:

| inhibition at 0.5 µM [2] | inhibition at 2 µM [2] | SMILES | inhibition at 0.01 µM [1] | inhibition at 0.5 µM [1] | IKZF2 substrate protein remaining % [3, 11] | IKZF3 substrate protein remaining % [4, 11] | IKZF 1 substrate protein remaining % [5, 11] | CK1α substrate protein remaining % [6, 11] | Wee1 substrate protein remaining % [7, 11] | GSPT1 substrate protein remaining % [8, 11] | IKZF2 substrate protein remaining % [3, 12] | IKZF3 substrate protein remaining % [4, 12] | IKZF 1 substrate protein remaining % [5, 12] | CK1α substrate protein remaining % [6, 12] | Wee1 substrate protein remaining % [7, 12] | GSPT1 substrate protein remaining % [8, 12] | inhibition at 0.01 µM [9] | inhibition at 0.5 µM [9] | inhibition at 0.01 µM ([10]; read-out: Inhibition Rate at 10 nM (%)) | inhibition at 0.5 µM ([10]; read-out: Inhibition Rate at 500 nM (%)) |
| --- | --- | --- | --- | --- | --- | --- | --- | --- | --- | --- | --- | --- | --- | --- | --- | --- | --- | --- | --- | --- |
| 30 to 40% | 60 to 80% | O=C1CCC(N2Cc3cc(CN4CCN(c5ccc(Cl)c(Cl)c5)CC4)ccc3C2=S)C(=O)N1 (stereo not drawn) [GT-08612, 3-(5-((4-(3,4-dichlorophenyl)piperazin-1-yl)methyl)-1-thioxoisoindolin-2-yl)piperidine-2,6-dione] | 10 to 20% | 50 to 60% | B (80%< substrate protein remaining %≤ 100%) | B (80%< substrate protein remaining %≤ 100%) | B (80%< substrate protein remaining %≤ 100%) | B (80%< substrate protein remaining %≤ 100%) | B (80%< substrate protein remaining %≤ 100%) | A (0% ≤ substrate protein remaining % ≤ 80%) | – | – | – | – | – | – | – | – | – | – |
| 53 to 60% | 80 to 100% | O=C1CCC(N2Cc3c(CN4CCN(Cc5ccc(-c6ccc(Cl)cc6)cc5)CC4)cccc3C2=S)C(=O)N1 (stereo not drawn) [GT-08960, 3-(4-((4-((4'-chloro-[1,1'-biphenyl]-4-yl)methyl)piperazin-1-yl)methyl)-1-thioxoisoindolin-2-yl)piperidine-2,6-dione] | 20 to 30% | 40 to 50% | – | – | – | – | – | – | – | – | – | – | – | – | – | – | – | – |
| 30 to 40% | 53 to 60% | O=C1CCC(N2Cc3c(CN4CCN(c5cc(Cl)ccc5Cl)CC4)cccc3C2=S)C(=O)N1 (stereo not drawn) [GT-08501, 3-(4-((4-(2,5-dichlorophenyl)piperazin-1-yl)methyl)-1-thioxoisoindolin-2-yl)piperidine-2,6-dione] | – | – | A (0% ≤ substrate protein remaining % ≤ 80%) | B (80%< substrate protein remaining %≤ 100%) | A (0% ≤ substrate protein remaining % ≤ 80%) | B (80%< substrate protein remaining %≤ 100%) | A (0% ≤ substrate protein remaining % ≤ 80%) | A (0% ≤ substrate protein remaining % ≤ 80%) | – | – | – | – | – | – | 40 to 60% | 40 to 60% | 50 to 60% | 60 to 70% |
